Results on 20 molecules are retold here after ChEMBL document CHEMBL1157910, “Structural requirement(s) of N-phenylthioureas and benzaldehyde thiosemicarbazones as inhibitors of melanogenesis in melanoma B 16 cells” (Bioorg Med Chem Lett, 2010).

For assay [1], the system named is B16. The assay can be described thus: Inhibition of melanogenesis in mouse B16 cells at 10 uM. The assay is classed as functional.
Assay [2] relates to B16. In words: Inhibition of melanogenesis in mouse B16 cells. Type of assay: functional, cell-based.
Assay [3] relates to B16. In words: Selectivity ratio for inhibition of melanogenesis in mouse B16 cell of compound to N-phenylthiourea. Type of assay: functional.

By inhibition is commonly meant the drop in the measured response relative to a control, in per cent. A lower inhibition goes with a weak effect. The term IC50 denotes the midpoint of a concentration-inhibition curve. A lower IC50 goes with higher potency.

Bounds are passed on as bounds.

As to `Cc1ccccc1NC(N)=S`, in the assay with B16 [1], the inhibition at 10 µM was < 10%. For the same molecule, the IC50 with B16 [2] is > 10 µM.

On to `CC(C)(C)c1ccccc1NC(N)=S`, for which, in the assay on B16 [1], the inhibition at 10 µM is < 10%. The concentration for half-maximal inhibition (IC50) with B16 [2] is > 10 µM.

As for `CCc1ccc(/C=N/NC(N)=S)cc1`, 10 µM produced 100% inhibition in the assay with B16 [1]. This molecule displayed a concentration for half-maximal inhibition (IC50) in the assay with B16 [2] of 3.4 µM. For the same molecule, the Ratio in the assay with B16 [3] worked out at 2.

`NC(=S)NCCCCc1ccccc1`: in the assay on B16 [1], the inhibition at 10 µM was < 10%. Also, the 50% inhibitory concentration (IC50) in the assay on B16 [2] is > 10 µM.

With `NC(=S)N/N=C/c1ccccc1` [PHENYLTHIOSEMICARBAZONE], in the assay on B16 [1], the inhibition at 10 µM is < 10%. For the same molecule, the concentration for half-maximal inhibition (IC50) in the assay with B16 [2] is > 10 µM.

As for `NC(=S)NCc1ccccc1`, the inhibition at 10 µM in the assay with B16 [1] was < 10%. Also, the 50% inhibitory concentration (IC50) in the assay with B16 [2] was > 10 µM.

For the molecule `Cc1ccc(/C=N/NC(N)=S)cc1`, the inhibition at 10 µM with B16 [1] amounted to 64%. For the same molecule, 6.8 µM corresponded to half-maximal inhibition in the assay on B16 [2] (IC50).

Regarding `NC(=S)Nc1ccccc1` [PHENYLTHIOUREA], 10 µM produced 84% inhibition with B16 [1]. Moreover, in the assay on B16 [2], half-maximal inhibition (IC50) was put at 5.4 µM.

Turning to `Cc1ccc(NC(N)=S)cc1`, in the assay on B16 [1], at 10 µM the inhibition was 83%. Moreover, in the assay with B16 [2], half-maximal inhibition (IC50) was put at 5.5 µM.

Consider `NC(=S)NCCCc1ccccc1`, for which the inhibition at 10 µM in the assay on B16 [1] is < 10%. In addition, the IC50 in the assay on B16 [2] was > 10 µM.

`NC(=S)Nc1ccc(Cl)cc1` had an inhibition at 10 µM in the assay with B16 [1] of 84%. The molecule further showed an IC50 in the assay with B16 [2] of 4 µM.

In the assay on B16 [1], `NC(=S)Nc1ccc(O)cc1` registered an inhibition at 10 µM of 70%. The molecule also yielded an IC50 with B16 [2] of 6.3 µM.

As for `NC(=S)NCCc1ccccc1`, in the assay with B16 [1], the inhibition at 10 µM is < 10%. In addition, the half-maximal inhibitory concentration (IC50) with B16 [2] was > 10 µM.

Molecule `Cc1cccc(NC(N)=S)c1` came in with an inhibition at 10 µM in the assay with B16 [1] of 78%. The same molecule came in with an IC50 in the assay with B16 [2] of 5 µM.

For the molecule `NC(=S)Nc1ccccc1CO`, the inhibition at 10 µM in the assay with B16 [1] is < 10%. Further, the concentration for half-maximal inhibition (IC50) in the assay with B16 [2] was > 10 µM.

In turn, `CCc1ccc(NC(N)=S)cc1` came in with an inhibition at 10 µM with B16 [1] of 88%. The molecule further registered an IC50 in the assay on B16 [2] of 4.9 µM.

For `COc1ccccc1NC(N)=S`, the inhibition at 10 µM in the assay on B16 [1] is < 10%. Besides, the half-inhibitory concentration (IC50) in the assay with B16 [2] was > 10 µM.

With `CCc1ccccc1NC(N)=S`, the inhibition at 10 µM with B16 [1] is < 10%. For the same molecule, the IC50 in the assay with B16 [2] was > 10 µM.

For `CC(C)(C)c1ccc(NC(N)=S)cc1`, testing at 10 µM in the assay with B16 [1] gave an inhibition of 95%. For the same molecule, it took 3.7 µM to reach half-maximal inhibition in the assay with B16 [2] (IC50).

Molecule `COc1ccc(NC(N)=S)cc1` came in with an inhibition at 10 µM in the assay on B16 [1] of 80%. Also, the concentration for half-maximal inhibition (IC50) with B16 [2] stood at 5.6 µM.
